These results are taken from ChEMBL document CHEMBL4602730, “In Vitro and in Vivo Evaluation of Membrane-Active Flavone Amphiphiles: Semisynthetic Kaempferol-Derived Antimicrobials against Drug-Resistant Gram-Positive Bacteria” (J Med Chem, 2020).

For data set [1], the system named is Staphylococcus aureus. Description: Antibacterial activity against Staphylococcus aureus ATCC 29213 assessed as inhibition of bacterial growth incubated for 24 hrs by broth microdilution method. Conditions: ATCC 29213, 24 h. The data set is classed as functional. Background: In broth dilution the organism is exposed to a series of concentrations in liquid medium.

For data set [2], the system named is Staphylococcus aureus. Description: Antibacterial activity against methicillin-resistant Staphylococcus aureus N315 assessed as inhibition of bacterial growth incubated for 24 hrs by broth microdilution method. It counts as functional. The note with it: N315, 24 h.
Data set [3] in a line: Induction of hemolysis in rabbit RBC incubated for 1 hr. The data set is classed as cell-based, Oryctolagus cuniculus, Erythrocyte. Conditions: rabbit red blood cells (erythrocytes).
In data set [4] the test system is Staphylococcus aureus. Description: Antibacterial activity against methicillin-resistant Staphylococcus aureus NCTC 10442 assessed as inhibition of bacterial growth incubated for 24 hrs by broth microdilution method. It counts as functional. Conditions: NCTC 10442, 24 h.

A word on the MIC: it is the least concentration at which growth counts as inhibited. A word on the HC50: it is the concentration giving 50% haemolysis. Lower therefore signals stronger haemolysis.

Converted amounts (≈) assume the structure as drawn. Where only a bound is given, the exact number is not on record here.

`CCCCCCCOc1ccc(-c2oc3cc(OCCCCCCC)cc(O)c3c(=O)c2OCCCN(CC)CC)cc1`: the minimal inhibitory concentration (MIC) with Staphylococcus aureus [1], in the data set with Staphylococcus aureus [2] and in the data set with Staphylococcus aureus [4] was over 83.9 µM throughout. The molecule further registered an HC50 at 1 h in data set [3] of over 336 µM.

Consider `CC(C)=CCOc1ccc(-c2oc3cc(OCC=C(C)C)cc(O)c3c(=O)c2OCCCN2CCOCC2)cc1`, for which the minimum inhibitory concentration (MIC) with Staphylococcus aureus [1], in the data set on Staphylococcus aureus [2] and in the data set on Staphylococcus aureus [4] was over 91 µM in each case. The molecule also showed a concentration for 50% haemolysis (HC50) at 1 h in data set [3] of over 364 µM.

`CC(C)=CCOc1ccc(-c2oc3cc(OCC=C(C)C)cc(O)c3c(=O)c2OCC(=O)NCCCN(C)C)cc1`: the MIC with Staphylococcus aureus [1] turned out to be 11.1 µM (≈ 6.27 µg/mL); in the data set on Staphylococcus aureus [2], 11.1 µM (≈ 6.27 µg/mL); in the data set with Staphylococcus aureus [4], 22.1 µM (≈ 12.5 µg/mL). The HC50 at 1 h in data set [3] is 287 µM.

For the molecule `CC(C)=CCOc1ccc(-c2oc3cc(OCC=C(C)C)cc(O)c3c(=O)c2OCCCN(C)C)cc1`, the MIC with Staphylococcus aureus [1], with Staphylococcus aureus [2] and with Staphylococcus aureus [4] was 12.3 µM (≈ 6.24 µg/mL) throughout. Also, the HC50 at 1 h in data set [3] is 228 µM.

As to `CCN(CC)CCCCCOc1c(-c2ccc(OCC=C(C)C)cc2)oc2cc(OCC=C(C)C)cc(O)c2c1=O`, the minimal inhibitory concentration (MIC) in the data set with Staphylococcus aureus [1], with Staphylococcus aureus [2] and in the data set with Staphylococcus aureus [4] was 22.2 µM (≈ 12.5 µg/mL) each time. In addition, the HC50 at 1 h in data set [3] was 99 µM.

Turning to `CCCN(CCC)CCCOc1c(-c2ccc(OCC=C(C)C)cc2)oc2cc(OCC=C(C)C)cc(O)c2c1=O`, the MIC in the data set on Staphylococcus aureus [1], in the data set with Staphylococcus aureus [2] and with Staphylococcus aureus [4] was over 88.7 µM in each case. Further, the HC50 at 1 h in data set [3] was over 355 µM.

Take `CCCCCOc1ccc(-c2oc3cc(OCCCCC)cc(O)c3c(=O)c2OCCCN(CC)CC)cc1`: the MIC with Staphylococcus aureus [1] turned out to be 11.6 µM (≈ 6.26 µg/mL); in the data set with Staphylococcus aureus [2] it was 11.6 µM (≈ 6.26 µg/mL); in the data set with Staphylococcus aureus [4] it was 23.2 µM (≈ 12.5 µg/mL). Besides, the 50% haemolytic concentration (HC50) at 1 h in data set [3] was 284 µM.

With `CCN(CC)CCCOc1c(-c2ccc(OCC=C(C)C)cc2)oc2cc(OCC=C(C)C)cc(O)c2c1=O`, the MIC in the data set with Staphylococcus aureus [1], with Staphylococcus aureus [2] and in the data set on Staphylococcus aureus [4] was 5.8 µM (≈ 3.11 µg/mL) in each case. The molecule further returned a 50% haemolytic concentration (HC50) at 1 h in data set [3] of 59.9 µM.

Turning to `O=c1c(O)c(-c2ccc(O)cc2)oc2cc(O)cc(O)c12` [KAEMPFEROL], the MIC in the data set on Staphylococcus aureus [1], in the data set on Staphylococcus aureus [2] and in the data set with Staphylococcus aureus [4] was over 175 µM each time.

On to `CCCNCCCOc1c(-c2ccc(OCC=C(C)C)cc2)oc2cc(OCC=C(C)C)cc(O)c2c1=O`, for which the MIC in the data set with Staphylococcus aureus [1] was 24 µM (≈ 12.5 µg/mL); in the data set with Staphylococcus aureus [2], 6 µM (≈ 3.13 µg/mL); in the data set with Staphylococcus aureus [4] it was 12 µM (≈ 6.26 µg/mL). In data set [3], this molecule returned a 50% haemolytic concentration (HC50) at 1 h of 49.8 µM.

In the case of `CC(C)=CCOc1ccc(-c2oc3cc(OCC=C(C)C)cc(O)c3c(=O)c2OCCCN2CCCC2)cc1`, the MIC with Staphylococcus aureus [1] was 23.4 µM (≈ 12.5 µg/mL); in the data set with Staphylococcus aureus [2] it was 11.7 µM (≈ 6.24 µg/mL); in the data set on Staphylococcus aureus [4], 23.4 µM (≈ 12.5 µg/mL). The HC50 at 1 h in data set [3] was over 375 µM.

On to `CCCCCNCCCOc1c(-c2ccc(OCC=C(C)C)cc2)oc2cc(OCC=C(C)C)cc(O)c2c1=O`, for which the MIC in the data set on Staphylococcus aureus [1] was determined as 45.5 µM (≈ 25 µg/mL); with Staphylococcus aureus [2] it was 11.4 µM (≈ 6.27 µg/mL); in the data set on Staphylococcus aureus [4], 22.7 µM (≈ 12.5 µg/mL). The same molecule gave an HC50 at 1 h in data set [3] of 69.7 µM.

In the case of `CC(C)=CCOc1ccc(-c2oc3cc(OCC=C(C)C)cc(O)c3c(=O)c2O)cc1`, the MIC in the data set with Staphylococcus aureus [1], in the data set on Staphylococcus aureus [2] and in the data set on Staphylococcus aureus [4] was over 118 µM throughout. Besides, in data set [3], the HC50 at 1 h was over 473 µM.

As to `CCCCCCCCCOc1ccc(-c2oc3cc(OCCCCCCCCC)cc(O)c3c(=O)c2O)cc1`, the MIC in the data set on Staphylococcus aureus [1], in the data set on Staphylococcus aureus [2] and in the data set with Staphylococcus aureus [4] was over 92.8 µM each time. In data set [3], this molecule showed an HC50 at 1 h of over 371 µM.

As for `CCN(CC)CCCCCCCCOc1c(-c2ccc(OCC=C(C)C)cc2)oc2cc(OCC=C(C)C)cc(O)c2c1=O`, the figures for the MIC in the data set with Staphylococcus aureus [1], in the data set on Staphylococcus aureus [2] and in the data set on Staphylococcus aureus [4] were 82.5 µM (≈ 50 µg/mL), 20.6 µM (≈ 12.5 µg/mL) and 82.5 µM (≈ 50 µg/mL), respectively. Also, the HC50 at 1 h in data set [3] was 29.4 µM.

`CC(C)=CCOc1ccc(-c2oc3cc(OCC=C(C)C)cc(O)c3c(=O)c2OCC(=O)N[C@@H](CCCNC(=N)N)C(=O)NCCCN(C)C)cc1`: the MIC in the data set on Staphylococcus aureus [1], with Staphylococcus aureus [2] and in the data set on Staphylococcus aureus [4] was 8.7 µM (≈ 6.27 µg/mL) throughout. Also, the HC50 at 1 h in data set [3] is 131 µM.

As to `CCN(CC)CCOc1c(-c2ccc(OCC=C(C)C)cc2)oc2cc(OCC=C(C)C)cc(O)c2c1=O`, the MIC in the data set on Staphylococcus aureus [1], in the data set on Staphylococcus aureus [2] and with Staphylococcus aureus [4] was 95.8 µM (≈ 50 µg/mL) each time. In addition, in data set [3], the HC50 at 1 h is over 383 µM.

In the case of `CCN(CC)CCCCCCCCCCOc1c(-c2ccc(OCC=C(C)C)cc2)oc2cc(OCC=C(C)C)cc(O)c2c1=O`, the minimum inhibitory concentration (MIC) with Staphylococcus aureus [1], in the data set on Staphylococcus aureus [2] and in the data set on Staphylococcus aureus [4] was over 78.9 µM throughout. The molecule also had an HC50 at 1 h in data set [3] of over 316 µM.

On to `CCN(CC)CCCCOc1c(-c2ccc(OCC=C(C)C)cc2)oc2cc(OCC=C(C)C)cc(O)c2c1=O`, for which the MIC in the data set with Staphylococcus aureus [1], in the data set on Staphylococcus aureus [2] and with Staphylococcus aureus [4] was 5.7 µM (≈ 3.13 µg/mL) throughout. The HC50 at 1 h in data set [3] worked out at 32.2 µM.

In the case of `CC(C)=CCOc1ccc(-c2oc3cc(OCC=C(C)C)cc(O)c3c(=O)c2OCCC[N+](C)(C)C)cc1`, the MIC in the data set with Staphylococcus aureus [1] was 4.8 µM; with Staphylococcus aureus [2], 2.4 µM; in the data set with Staphylococcus aureus [4], 4.8 µM. In data set [3], this molecule gave an HC50 at 1 h of 77.3 µM.

Regarding `CCCOc1ccc(-c2oc3cc(OCCC)cc(O)c3c(=O)c2O)cc1`, the MIC in the data set with Staphylococcus aureus [1], in the data set on Staphylococcus aureus [2] and in the data set with Staphylococcus aureus [4] was over 135 µM each time. The HC50 at 1 h in data set [3] was over 540 µM.

On to `CC[N+](C)(CC)CCCOc1c(-c2ccc(OCC=C(C)C)cc2)oc2cc(OCC=C(C)C)cc(O)c2c1=O`, for which the MIC with Staphylococcus aureus [1] is 4.6 µM; with Staphylococcus aureus [2], 2.3 µM; in the data set on Staphylococcus aureus [4], 4.6 µM. In addition, in data set [3], the HC50 at 1 h worked out at 88.2 µM.

Take `COC(=O)[C@H](CCCNC(=N)N)NC(=O)[C@H](CCCNC(=N)N)NC(=O)COc1c(-c2ccc(OCC=C(C)C)cc2)oc2cc(OCC=C(C)C)cc(O)c2c1=O`: the MIC with Staphylococcus aureus [1], in the data set on Staphylococcus aureus [2] and in the data set with Staphylococcus aureus [4] was 3.9 µM (≈ 3.15 µg/mL) throughout. Further, the HC50 at 1 h in data set [3] turned out to be 82.5 µM.

Take `CCN(CC)CCCNC(=O)COc1c(-c2ccc(OCC=C(C)C)cc2)oc2cc(OCC=C(C)C)cc(O)c2c1=O`: the minimum inhibitory concentration (MIC) with Staphylococcus aureus [1] was found to be 10.5 µM (≈ 6.22 µg/mL); with Staphylococcus aureus [2], 10.5 µM (≈ 6.22 µg/mL); with Staphylococcus aureus [4] it was 21.1 µM (≈ 12.5 µg/mL). The HC50 at 1 h in data set [3] was found to be 80.3 µM.

As for `CCCCCCCCNCCCOc1c(-c2ccc(OCC=C(C)C)cc2)oc2cc(OCC=C(C)C)cc(O)c2c1=O`, the results for the MIC in the data set with Staphylococcus aureus [1], with Staphylococcus aureus [2] and with Staphylococcus aureus [4] were over 84.5 µM, 21.1 µM (≈ 12.5 µg/mL) and over 84.5 µM, respectively. In data set [3], this molecule yielded an HC50 at 1 h of over 338 µM.

In the case of `CCCC[N+](C)(CCCC)CCCOc1c(-c2ccc(OCC=C(C)C)cc2)oc2cc(OCC=C(C)C)cc(O)c2c1=O`, the MIC with Staphylococcus aureus [1] was found to be 17.1 µM; in the data set on Staphylococcus aureus [2] it was 17.1 µM; with Staphylococcus aureus [4] it was 34.1 µM. For the same molecule, the concentration for 50% haemolysis (HC50) at 1 h in data set [3] is 46.9 µM.

`CC(C)=CCOc1ccc(-c2oc3cc(OCC=C(C)C)cc(OCC(=O)NCCCN(C)C)c3c(=O)c2OCC(=O)NCCCN(C)C)cc1`: the results for the MIC in the data set on Staphylococcus aureus [1], in the data set on Staphylococcus aureus [2] and in the data set on Staphylococcus aureus [4] were 35.4 µM (≈ 25 µg/mL), 70.7 µM (≈ 50 µg/mL) and 70.7 µM (≈ 50 µg/mL), respectively. Moreover, in data set [3], the HC50 at 1 h is over 283 µM.

With `CC(C)=CCOc1ccc(-c2oc3cc(OCC=C(C)C)cc(O)c3c(=O)c2OCCCN2CCN(C)CC2)cc1`, the MIC amounted to 22.2 µM (≈ 12.5 µg/mL) in the data set on Staphylococcus aureus [1], 11.1 µM (≈ 6.25 µg/mL) with Staphylococcus aureus [2] and 22.2 µM (≈ 12.5 µg/mL) in the data set on Staphylococcus aureus [4]. In data set [3], this molecule came in with an HC50 at 1 h of 83.3 µM.

In the case of `CCCCN(CCCC)CCCOc1c(-c2ccc(OCC=C(C)C)cc2)oc2cc(OCC=C(C)C)cc(O)c2c1=O`, the minimum inhibitory concentration (MIC) with Staphylococcus aureus [1], with Staphylococcus aureus [2] and in the data set on Staphylococcus aureus [4] was over 84.5 µM in each case. In data set [3], the concentration for 50% haemolysis (HC50) at 1 h is over 338 µM.
